Where a SMILES comes first, the peptide text is derived from it.
Assays:
[1] = Bioabsorbability of tyrosine after oral administration to mice (plasma amino acids by LC-MS/MS); format: in vivo, C57B6J Mice; settings: oral 0.55 mmol/kg body weight; for administered dipeptide detected in the plasma: at any time after administration (15-60 min), results not shown
Method: C57B6J Mice (CLEA Japan, Inc., 8 weeks old, male) were acclimatized for 1 week, and then the mice were divided into 4 groups with similar body weights (N=4 for each group). Each of amino acids dissolved in water was orally administered to the mice by sonde at the following dose in Table 1. Venous blood was collected from the fundus using a heparin-treated micro hematocrit tube (VITREX) under isoflurane anesthesia before administration and 15, 30, 45, and 60 minutes after administration. These were centrifuged (8,000×g, 10 minutes, 4° C.) to obtain plasma. Thereafter, a 15% by mass of aqueous sulfosalicylic acid solution which was three times amount of the plasma was added thereto, mixed, and centrifuged (8,000×g, 10 minutes, 4° C.) to remove the protein, and the obtained plasma was used as a sample for analysis. Quantification of amino acids in the sample for analysis was performed using LC-MS/MS. Infinity 1290 (Agilent) was used for liquid chromatography, and 3200 QTRAP (AB Sciex) was used for mass spectrometry.
A tyrosine administration group and a tyrosine and glycine (each equimolar amount) mixed administration group were set as controls for the glycyltyrosine administration group. An alanyltyrosine administration group was also set for effect comparison.

[2] = Solubility in water; format: physicochemical; settings: dose of 0.55 mmol/kg body weight, an amount equivalent to 10 times the solubility of tyrosine
Method: Glycyltyrosine and alanyltyrosine are known to have high solubility as compared to tyrosine, and the solubility thereof in water at 20° C. is about 75 times and about 36 times that of tyrosine, respectively (Fust et al., (2001) J. Nutr.). […] In spite of this, an excellent action of improving bioabsorbability of tyrosine was confirmed only in the oral administration/ingestion of glycyltyrosine. Therefore, the action is considered not due to the improvement in solubility, but an effect unique to glycyltyrosine.

[3] = water at 20° C.; Fust et al. (2001) J. Nutr.; cited from earlier work

NCC(=O)N[C@@H](Cc1ccc(O)cc1)C(=O)O [glycyltyrosine, Glycyl-L-tyrosine dihydrate] (H-Gly-Tyr-OH)
blood tyrosine concentration compared with the tyrosine administration group ([1]; 15 minutes after administration, Dunnett p<0.01, FIG. 1): significantly higher
maximum blood concentration (Cmax) of tyrosine compared to the tyrosine administration group ([1]; FIG. 2): significantly high values
administered dipeptide detected in the plasma [1]: not detected
blood glycine concentration versus the tyrosine and glycine mixed administration group ([1]; at any time after administration, FIG. 1): no significant difference
area under the increased blood concentration-time curve (iAUC) of tyrosine compared to the tyrosine administration group ([1]; until 60 minutes after administration, FIG. 2): significantly high values
dissolution of the administration sample in water [2]: completely dissolved
solubility in water relative to that of tyrosine [3]: about 75 times

C[C@H](N)C(=O)N[C@@H](Cc1ccc(O)cc1)C(=O)O [alanyltyrosine, L-Alanyl-L-tyrosine, reference compound] (H-Ala-Tyr-OH)
administered dipeptide detected in the plasma [1]: not detected
dissolution of the administration sample in water [2]: completely dissolved
solubility in water relative to that of tyrosine [3]: about 36 times

Source: patent US11278586B2, “Highly absorbable oral tyrosine formulation” (Kao Corporation, priority 2017, dated 2022)
